Here are results for 3 compounds from patent US20090264420A1, “ORGANIC COMPOUNDS” (priority 2006, published 2009).

In this assay the target is T1, CYP11B1 (Homo sapiens, UniProt P15538).
T1 construct: Thus, the NCI-H295R cells have Cyp 11 B1 (steroid 11 p-hydroxylase); host or cells: NCI-H295R
T1 sequence (P15538 25-503): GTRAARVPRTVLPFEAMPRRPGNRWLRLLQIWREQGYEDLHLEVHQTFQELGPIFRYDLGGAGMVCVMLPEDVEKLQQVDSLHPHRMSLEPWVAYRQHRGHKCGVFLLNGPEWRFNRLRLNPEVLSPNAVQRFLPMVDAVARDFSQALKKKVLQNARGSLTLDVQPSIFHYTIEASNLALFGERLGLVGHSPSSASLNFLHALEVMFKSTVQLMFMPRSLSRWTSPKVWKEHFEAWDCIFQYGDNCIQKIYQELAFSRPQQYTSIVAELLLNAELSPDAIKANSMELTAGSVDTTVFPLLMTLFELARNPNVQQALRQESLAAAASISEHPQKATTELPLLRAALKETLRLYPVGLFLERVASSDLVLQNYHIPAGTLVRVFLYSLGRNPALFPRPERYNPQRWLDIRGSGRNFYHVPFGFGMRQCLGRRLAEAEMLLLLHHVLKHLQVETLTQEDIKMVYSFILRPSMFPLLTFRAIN
In words: CYP11B1 inhibition in NCI-H295R cells (steroid release by radioimmunoassay). The assay is classed as cell-based. The conditions noted are these: percentage of inhibitory rate at 100 nM; 11B1: CYP11B1. The source says: The in vitro inhibitory activities for CYP 11 B1 can be determined by the following assay.
The cell line NCI-H295R was originally isolated from an adrenocortical carcinoma and has been characterized in the literature through the stimulable secretion of steroid hormones and the presence of the enymes essential for steroidogenesis. Thus, the NCI-H295R cells have Cyp 11 B1 (steroid 11 p-hydroxylase). The cells show the physiological property of zonally undifferentiated human foetal adrenocortical cells which, however, have the capacity to produce the steroid hormones which are formed in the three, phenotypically distinguishable zones in the adult adrenal, cortex.
The NCI-H295R cells (American Type Culture Collection, ATCC, Rockville, Md., USA) are grown in Dulbeoco's Modified Eagle Ham F-12 Medium (DME/F12), which has been I supplemented with Ulroser SF Serum (Soprachem, Cergy-Saint-Christophe, France), insulin, transferrin, selenite (1-T-S, Becton Dickinson Biosiences, Franklin lakes, NJ, USA) and antibiotics in 75 cm^2 cell culture vessels at 37° C. and in a 95% air-5% carbon dioxide atmosphere. The cells are subsequently transferred for colony formation into a 24-well incubation vessel. They are cultivated there in DME/F12 medium, which is now supplemented with 0.1% bovine serum instead of Ultroser SF for 24 hours. The experiment is initiated by cultivating the cells in DME/F12 medium which is supplemented with 0.1% bovine serum albumin and test compound, in the presence or absence of cell stimulants, for 72 hours. The test substance is added in a concentration range from 0.2 nanomolar to […]. […]
The excretion of aldosterone, cortisol, corticosterone and estradiol/estrone into the culture medium can be detected and quantified by commercially available; specific monoclonal antibodies in radioimmunoassays in accordance with the manufacturer's instructions.
Inhibition of the release of certain steroids can be used as a measure of the respective enzyme inhibition by the added test compounds. The dose-dependent inhibition of enzymic activity by a compound is calculated by means of an inhibition plot which is characterized by an IC50.
The IC50 values for active test compounds are ascertained by a simple linear regression analysis in order to construct inhibition plots without data weighting. The inhibition plot is calculated by fting a 4-parameter logistic function to the raw data points using the least squares method. The equation of the 4-parameter logistic function is calculated as follows: Y=(d−a)/((1+(x/c)b))+aI where: a=minimum data level b gradient I c=ICED d=maximum data level x=inhibitor concentration.

As for `CCC(C)(C)C1C(=O)N(Cc2cccc(F)c2)CCc2cncn21` (single isomer, unassigned) [Compound 2, 4-(1,1-Dimethyl-propyl)-6-(3-fluoro-benzyl)-7,8-dihydro-6H-2,3a,6-triaza-azulen-5-one], the “11B1 % I @ 100 nM” value is 100%.
For `CC(C)(C)C1C(=O)N(Cc2ccc(Cl)cc2)Cc2cncn21` (single isomer, unassigned) [Compound 6, 5-tert-Butyl-7-(4-chloro-benzyl)-7,8-dihydro-imidazo[1,5-a]pyrazin-6-one], the “11B1 % I @ 100 nM” value is 98%.
Take `N#Cc1ccc(CN2Cc3cncn3C(C3CC3)C2=O)cc1` (single isomer, unassigned) [Compound 8, 4-(5-Cyclopropyl-6-oxo-5,6-dihydro-8H-imidazo[1,5-a]pyrazin-7-ylmethyl)-benzonitrile]: the “11B1 % I @ 100 nM” value was determined as 95%.
